Molecular target: Aβ42 (Homo sapiens, UniProt P05067)
Assay: Th-T (thioflavin-T) assay of Aβ42 aggregation
Format: biochemical
Settings: for Th-T assay plate reading, mean of three wells (Supplementary Fig. 47): source data, Ab alone and No Ab as controls

Aβ42, sequence (P05067 672-713): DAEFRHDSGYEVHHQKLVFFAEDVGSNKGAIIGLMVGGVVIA

C=C1CC[C@H]2[C@]3(C)C[C@H](C=C(C)C)O[C@H]3CC[C@]2(C)[C@@H]1Cc1c(O)c(C)c(C)oc1=O [Compound 6, subglutinol B]
Th-T fluorescence, mean of three wells (Aβ42 aggregation time course, reading M117): 3.0425
Th-T fluorescence, mean of three wells (Aβ42 aggregation time course, reading M118): 3.0715
Th-T fluorescence, mean of three wells (Aβ42 aggregation time course, reading M119): 3.036
Th-T fluorescence, mean of three wells (Aβ42 aggregation time course, reading M120): 3.042
Th-T fluorescence, mean of three wells (Aβ42 aggregation time course, reading M121): 3.063
Th-T fluorescence, mean of three wells (Aβ42 aggregation time course, reading M122): 3.055
Th-T fluorescence, mean of three wells (Aβ42 aggregation time course, reading M123): 3.062
Th-T fluorescence, mean of three wells (Aβ42 aggregation time course, reading M124): 3.061
Th-T fluorescence, mean of three wells (Aβ42 aggregation time course, reading M125): 3.081
Th-T fluorescence, mean of three wells (Aβ42 aggregation time course, reading M126): 3.018
Th-T fluorescence, mean of three wells (Aβ42 aggregation time course, reading M127): 3.038
Th-T fluorescence, mean of three wells (Aβ42 aggregation time course, reading M128): 3.027
Th-T fluorescence, mean of three wells (Aβ42 aggregation time course, reading M129): 3.02
Th-T fluorescence, mean of three wells (Aβ42 aggregation time course, reading M130): 3.02
Th-T fluorescence, mean of three wells (Aβ42 aggregation time course, reading M131): 3.032
Th-T fluorescence, mean of three wells (Aβ42 aggregation time course, reading M132): 3.01
Th-T fluorescence, mean of three wells (Aβ42 aggregation time course, reading M133): 3.061
Th-T fluorescence, mean of three wells (Aβ42 aggregation time course, reading M134): 3.045
Th-T fluorescence, mean of three wells (Aβ42 aggregation time course, reading M135): 3.053
Th-T fluorescence, mean of three wells (Aβ42 aggregation time course, reading M136): 3.034
Th-T fluorescence, mean of three wells (Supplementary Fig. 47, reading M137): 3.021
Th-T fluorescence, mean of three wells (Supplementary Fig. 47, reading M138): 3.036
Th-T fluorescence, mean of three wells (Supplementary Fig. 47, reading M139): 3.036
Th-T fluorescence, mean of three wells (Supplementary Fig. 47, reading M140): 3.0121
Th-T fluorescence, mean of three wells (Supplementary Fig. 47, reading M141): 3.01
Th-T fluorescence, mean of three wells (Supplementary Fig. 47, reading M142): 2.999
Th-T fluorescence, mean of three wells (Supplementary Fig. 47, reading M143): 3.017
Th-T fluorescence, mean of three wells (Supplementary Fig. 47, reading M144): 3.0125
Th-T fluorescence, mean of three wells (Supplementary Fig. 47, reading M145): 3.0288
Th-T fluorescence, mean of three wells (Supplementary Fig. 47 source data, measurement M37 of time course): 3.017
Th-T fluorescence, mean of three wells (Supplementary Fig. 47 source data, measurement M38 of time course): 3.04
Th-T fluorescence, mean of three wells (Supplementary Fig. 47 source data, measurement M39 of time course): 3.05
Th-T fluorescence, mean of three wells (Supplementary Fig. 47 source data, measurement M40 of time course): 3.045
Th-T fluorescence, mean of three wells (Supplementary Fig. 47 source data, measurement M41 of time course): 3.085
Th-T fluorescence, mean of three wells (Supplementary Fig. 47 source data, measurement M42 of time course): 3.072
Th-T fluorescence, mean of three wells (Supplementary Fig. 47 source data, measurement M43 of time course): 3.079
Th-T fluorescence, mean of three wells (Supplementary Fig. 47 source data, measurement M44 of time course): 3.068
Th-T fluorescence, mean of three wells (Supplementary Fig. 47 source data, measurement M45 of time course): 3.111
Th-T fluorescence, mean of three wells (Supplementary Fig. 47 source data, measurement M46 of time course): 3.079
Th-T fluorescence, mean of three wells (Supplementary Fig. 47 source data, measurement M47 of time course): 3.097
Th-T fluorescence, mean of three wells (Supplementary Fig. 47 source data, measurement M48 of time course): 3.117
Th-T fluorescence, mean of three wells (Supplementary Fig. 47 source data, measurement M49 of time course): 3.11
Th-T fluorescence, mean of three wells (Supplementary Fig. 47 source data, measurement M50 of time course): 3.114
Th-T fluorescence, mean of three wells (Supplementary Fig. 47 source data, measurement M51 of time course): 3.119
Th-T fluorescence, mean of three wells (Supplementary Fig. 47 source data, measurement M52 of time course): 3.113
Th-T fluorescence, mean of three wells (Supplementary Fig. 47 source data, measurement M53 of time course): 3.12
Th-T fluorescence, mean of three wells (Supplementary Fig. 47 source data, measurement M54 of time course): 3.1191
Th-T fluorescence, mean of three wells (Supplementary Fig. 47 source data, measurement M55 of time course): 3.1238
Th-T fluorescence, mean of three wells (Supplementary Fig. 47 source data, measurement M56 of time course): 3.106
Th-T assay plate reading, mean of three wells (Supplementary Fig. 47) (measurement M1): 0.3106
Th-T assay plate reading, mean of three wells (Supplementary Fig. 47) (measurement M2): 0.3077
Th-T assay plate reading, mean of three wells (Supplementary Fig. 47) (measurement M3): 0.3313
Th-T assay plate reading, mean of three wells (Supplementary Fig. 47) (measurement M4): 0.3664
Th-T assay plate reading, mean of three wells (Supplementary Fig. 47) (measurement M5): 0.4514
Th-T assay plate reading, mean of three wells (Supplementary Fig. 47) (measurement M6): 0.4846
Th-T assay plate reading, mean of three wells (Supplementary Fig. 47) (measurement M7): 0.512
Th-T assay plate reading, mean of three wells (Supplementary Fig. 47) (measurement M8): 0.5981
Th-T assay plate reading, mean of three wells (Supplementary Fig. 47) (measurement M9): 0.6456
Th-T assay plate reading, mean of three wells (Supplementary Fig. 47) (measurement M10): 0.6881
Th-T assay plate reading, mean of three wells (Supplementary Fig. 47) (measurement M11): 0.7275
Th-T assay plate reading, mean of three wells (Supplementary Fig. 47) (measurement M12): 0.7567
Th-T assay plate reading, mean of three wells (Supplementary Fig. 47) (measurement M13): 0.7872
Th-T assay plate reading, mean of three wells (Supplementary Fig. 47) (measurement M14): 0.8218
Th-T assay plate reading, mean of three wells (Supplementary Fig. 47) (measurement M15): 0.8797
Th-T assay plate reading, mean of three wells (Supplementary Fig. 47) (measurement M16): 0.9731
Th-T fluorescence, mean of three wells (reading M17, Supplementary Fig. 47 source data): 1.192
Th-T fluorescence, mean of three wells (reading M18, Supplementary Fig. 47 source data): 1.512
Th-T fluorescence, mean of three wells (reading M19, Supplementary Fig. 47 source data): 1.858
Th-T fluorescence, mean of three wells (reading M20, Supplementary Fig. 47 source data): 2.193
Th-T fluorescence, mean of three wells (reading M21, Supplementary Fig. 47 source data): 2.479
Th-T fluorescence, mean of three wells (reading M22, Supplementary Fig. 47 source data): 2.615
Th-T fluorescence, mean of three wells (reading M23, Supplementary Fig. 47 source data): 2.7089
Th-T fluorescence, mean of three wells (reading M24, Supplementary Fig. 47 source data): 2.736
Th-T fluorescence, mean of three wells (reading M25, Supplementary Fig. 47 source data): 2.775
Th-T fluorescence, mean of three wells (reading M26, Supplementary Fig. 47 source data): 2.797
Th-T fluorescence, mean of three wells (reading M27, Supplementary Fig. 47 source data): 2.826
Th-T fluorescence, mean of three wells (reading M28, Supplementary Fig. 47 source data): 2.834
Th-T fluorescence, mean of three wells (reading M29, Supplementary Fig. 47 source data): 2.861
Th-T fluorescence, mean of three wells (reading M30, Supplementary Fig. 47 source data): 2.901
Th-T fluorescence, mean of three wells (reading M31, Supplementary Fig. 47 source data): 2.9009
Th-T fluorescence, mean of three wells (reading M32, Supplementary Fig. 47 source data): 2.941
Th-T fluorescence, mean of three wells (reading M33, Supplementary Fig. 47 source data): 2.954
Th-T fluorescence, mean of three wells (reading M34, Supplementary Fig. 47 source data): 2.9825
Th-T fluorescence, mean of three wells (reading M35, Supplementary Fig. 47 source data): 2.976
Th-T fluorescence, mean of three wells (reading M36, Supplementary Fig. 47 source data): 3.001
Th-T fluorescence, mean of three wells (time course, reading M57): 3.126
Th-T fluorescence, mean of three wells (time course, reading M58): 3.154
Th-T fluorescence, mean of three wells (time course, reading M59): 3.098
Th-T fluorescence, mean of three wells (time course, reading M60): 3.135
Th-T fluorescence, mean of three wells (time course, reading M61): 3.131
Th-T fluorescence, mean of three wells (time course, reading M62): 3.132
Th-T fluorescence, mean of three wells (time course, reading M63): 3.122
Th-T fluorescence, mean of three wells (time course, reading M64): 3.115
Th-T fluorescence, mean of three wells (time course, reading M65): 3.114
Th-T fluorescence, mean of three wells (time course, reading M66): 3.129
Th-T fluorescence, mean of three wells (time course, reading M67): 3.159
Th-T fluorescence, mean of three wells (time-course reading M97, Supplementary Fig. 47 source data): 3.103
Th-T fluorescence, mean of three wells (time-course reading M98, Supplementary Fig. 47 source data): 3.123
Th-T fluorescence, mean of three wells (time-course reading M99, Supplementary Fig. 47 source data): 3.102
Th-T fluorescence, mean of three wells (time-course reading M100, Supplementary Fig. 47 source data): 3.074
Th-T fluorescence, mean of three wells (time-course reading M101, Supplementary Fig. 47 source data): 3.118
Th-T fluorescence, mean of three wells (time-course reading M102, Supplementary Fig. 47 source data): 3.1
Th-T fluorescence, mean of three wells (time-course reading M103, Supplementary Fig. 47 source data): 3.088
Th-T fluorescence, mean of three wells (time-course reading M104, Supplementary Fig. 47 source data): 3.101
Th-T fluorescence, mean of three wells (time-course reading M105, Supplementary Fig. 47 source data): 3.114
Th-T fluorescence, mean of three wells (time-course reading M106, Supplementary Fig. 47 source data): 3.076
Th-T fluorescence, mean of three wells (time-course reading M107, Supplementary Fig. 47 source data): 3.094
Th-T fluorescence, mean of three wells (time-course reading M108, Supplementary Fig. 47 source data): 3.063
Th-T fluorescence, mean of three wells (time-course reading M109, Supplementary Fig. 47 source data): 3.057
Th-T fluorescence, mean of three wells (time-course reading M110, Supplementary Fig. 47 source data): 3.049
Th-T fluorescence, mean of three wells (time-course reading M111, Supplementary Fig. 47 source data): 3.101
Th-T fluorescence, mean of three wells (time-course reading M112, Supplementary Fig. 47 source data): 3.097
Th-T fluorescence, mean of three wells (time-course reading M113, Supplementary Fig. 47 source data): 3.03
Th-T fluorescence, mean of three wells (time-course reading M114, Supplementary Fig. 47 source data): 3.07
Th-T fluorescence, mean of three wells (time-course reading M115, Supplementary Fig. 47 source data): 3.098
Th-T fluorescence, mean of three wells (time-course reading M116, Supplementary Fig. 47 source data): 3.06

From paper PMC7156458, “Synthetic biology based construction of biological activity-related library of fungal decalin-containing diterpenoid pyrones” (Nature Communications, 2020)
